From publication PMC11149885 (PLOS ONE, 2024)
Where “and” joins values, the source holds several entries; their conditions need not be identical. Equal values may be shown once. Read-outs that look alike come from different tables or passages of the source.

What was measured:
FGFR3 = molecular target: T1, FGFR3 (Homo sapiens, UniProt P22607); experiment: HotSpot kinase screen; type: biochemical; conditions: 10μM ATP
T1 construct: purchased Reaction Biology Corporation (contract assay)

VEGFR2 [1] = molecular target: T2, VEGFR2 (Homo sapiens, UniProt P35968); experiment: HotSpot kinase screen; type: biochemical; conditions: 10μM ATP
T2 construct: purchased Millipore Corporation (Dundee, Scotland) or Reaction Biology Corporation (contract assay)
T2 sequence (P35968 20-1356): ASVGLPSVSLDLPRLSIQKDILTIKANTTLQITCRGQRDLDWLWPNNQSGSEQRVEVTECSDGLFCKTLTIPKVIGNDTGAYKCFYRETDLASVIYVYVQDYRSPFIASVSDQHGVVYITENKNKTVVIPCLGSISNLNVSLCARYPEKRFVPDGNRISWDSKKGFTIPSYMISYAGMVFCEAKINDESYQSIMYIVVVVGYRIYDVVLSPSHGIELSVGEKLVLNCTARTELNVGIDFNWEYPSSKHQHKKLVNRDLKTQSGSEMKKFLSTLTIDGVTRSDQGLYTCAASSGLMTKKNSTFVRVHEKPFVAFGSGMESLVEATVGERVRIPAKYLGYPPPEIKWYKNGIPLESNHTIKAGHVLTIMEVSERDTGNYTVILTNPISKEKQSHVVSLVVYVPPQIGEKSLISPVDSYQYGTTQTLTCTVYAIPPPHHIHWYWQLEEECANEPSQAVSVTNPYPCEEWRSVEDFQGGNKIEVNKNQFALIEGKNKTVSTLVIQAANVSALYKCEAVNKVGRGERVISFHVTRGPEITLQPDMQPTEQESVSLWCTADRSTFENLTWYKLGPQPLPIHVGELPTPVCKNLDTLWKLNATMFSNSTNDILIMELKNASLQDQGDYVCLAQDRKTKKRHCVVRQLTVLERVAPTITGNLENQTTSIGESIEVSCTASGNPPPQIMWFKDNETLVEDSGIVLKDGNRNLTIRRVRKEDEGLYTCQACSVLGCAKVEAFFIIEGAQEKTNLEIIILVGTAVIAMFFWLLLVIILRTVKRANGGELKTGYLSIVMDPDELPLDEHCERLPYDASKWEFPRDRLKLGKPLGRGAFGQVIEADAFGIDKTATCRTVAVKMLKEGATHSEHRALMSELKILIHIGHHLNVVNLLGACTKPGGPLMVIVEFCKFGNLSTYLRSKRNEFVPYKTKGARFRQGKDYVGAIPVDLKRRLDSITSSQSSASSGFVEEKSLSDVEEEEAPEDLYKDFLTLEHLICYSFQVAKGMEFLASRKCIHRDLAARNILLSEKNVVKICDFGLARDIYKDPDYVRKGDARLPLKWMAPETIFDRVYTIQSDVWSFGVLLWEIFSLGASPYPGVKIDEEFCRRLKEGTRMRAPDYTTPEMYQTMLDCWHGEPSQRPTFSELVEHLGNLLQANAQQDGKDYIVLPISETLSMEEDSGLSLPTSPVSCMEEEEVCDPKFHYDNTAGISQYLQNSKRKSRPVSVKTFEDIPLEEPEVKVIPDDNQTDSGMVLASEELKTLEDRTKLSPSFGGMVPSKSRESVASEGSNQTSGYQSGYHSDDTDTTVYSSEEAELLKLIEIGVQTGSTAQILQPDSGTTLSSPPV

PDGFRβ = molecular target: T3, PDGFRβ (Homo sapiens, UniProt P09619); experiment: HotSpot kinase screen; type: biochemical; conditions: 10μM ATP
T3 construct: purchased Reaction Biology Corporation (contract assay)

VEGFR2 [2] = molecular target: T2, VEGFR2; experiment: Ten-dose IC50 measurement; type: biochemical; conditions: 10μM ATP
VEGFR3 = molecular target: T4, VEGFR3 (Homo sapiens, UniProt P35916); experiment: Ten-dose IC50 measurement; type: biochemical; conditions: 10μM ATP
T4 construct: purchased Millipore Corporation (Dundee, Scotland) or Reaction Biology Corporation (contract assay)
T4 sequence (P35916 25-1363): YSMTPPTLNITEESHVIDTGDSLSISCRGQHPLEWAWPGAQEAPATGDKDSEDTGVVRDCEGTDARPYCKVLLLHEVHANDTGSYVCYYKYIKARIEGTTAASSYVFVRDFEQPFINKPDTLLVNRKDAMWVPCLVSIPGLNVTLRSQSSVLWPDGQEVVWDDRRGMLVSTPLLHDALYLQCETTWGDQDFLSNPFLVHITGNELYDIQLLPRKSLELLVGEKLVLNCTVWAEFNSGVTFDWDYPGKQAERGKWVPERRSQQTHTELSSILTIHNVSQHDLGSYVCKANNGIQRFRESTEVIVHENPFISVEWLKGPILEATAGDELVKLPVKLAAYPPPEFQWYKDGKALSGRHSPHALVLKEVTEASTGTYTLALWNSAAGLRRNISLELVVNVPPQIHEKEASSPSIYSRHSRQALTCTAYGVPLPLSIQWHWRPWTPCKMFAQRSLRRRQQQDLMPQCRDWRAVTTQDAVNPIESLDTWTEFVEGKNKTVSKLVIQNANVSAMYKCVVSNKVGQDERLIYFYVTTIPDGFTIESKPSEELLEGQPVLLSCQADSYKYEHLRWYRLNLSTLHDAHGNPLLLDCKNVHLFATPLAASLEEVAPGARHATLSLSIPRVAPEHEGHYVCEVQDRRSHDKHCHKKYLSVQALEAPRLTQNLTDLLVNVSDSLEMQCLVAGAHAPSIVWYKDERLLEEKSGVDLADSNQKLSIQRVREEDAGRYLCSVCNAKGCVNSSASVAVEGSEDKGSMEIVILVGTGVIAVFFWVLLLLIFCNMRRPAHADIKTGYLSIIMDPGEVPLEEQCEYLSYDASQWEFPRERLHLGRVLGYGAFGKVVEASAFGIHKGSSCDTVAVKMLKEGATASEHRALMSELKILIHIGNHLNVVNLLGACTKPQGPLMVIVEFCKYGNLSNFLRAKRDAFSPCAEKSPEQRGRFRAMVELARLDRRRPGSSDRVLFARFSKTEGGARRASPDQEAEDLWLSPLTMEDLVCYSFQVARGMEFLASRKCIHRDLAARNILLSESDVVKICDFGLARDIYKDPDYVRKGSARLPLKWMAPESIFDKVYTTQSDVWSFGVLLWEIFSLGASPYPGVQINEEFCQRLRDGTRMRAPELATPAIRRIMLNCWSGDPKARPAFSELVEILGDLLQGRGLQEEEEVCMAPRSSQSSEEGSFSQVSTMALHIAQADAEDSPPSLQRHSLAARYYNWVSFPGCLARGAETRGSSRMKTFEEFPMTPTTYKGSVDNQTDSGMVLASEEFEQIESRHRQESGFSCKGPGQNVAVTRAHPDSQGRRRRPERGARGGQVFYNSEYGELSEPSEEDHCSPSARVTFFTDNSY

[3] = test system: VEGF-A–induced sprouting of HUVECs; experiment: HUVEC spheroid sprouting assay; type: cell-based, human; conditions: for cumulative sprout length per spheroid (CSL), mean: 25 ng/mL VEGF-165, 24 hours
Experimental: The three TKI compounds were tested by Reaction Biology Europe (Freiburg, Germany) in the spheroid-based cellular angiogenesis assay to determine their effect on VEGF-A–induced sprouting of HUVECs. Primary HUVECs from pooled donors at passage 3 to 4 (PromoCell, Heidelberg, Germany) were grown in endothelial cell growth and basal medium (ECGM/ECBM, PromoCell). Test compounds were prepared as 100-fold concentrated stock solutions in DMSO and pre-diluted in basal medium. HUVECs were stimulated using 25 ng/mL VEGF-165 (Reaction Biology Europe, Freiburg, Germany) pre-diluted in basal medium.
Spheroids were prepared as described by pipetting 400 HUVECs in a hanging drop on plastic dishes to allow overnight spheroid aggregation. Fifty HUVEC spheroids were seeded in 0.9 mL of a collagen gel and pipetted into individual wells of a 24-well plate to allow polymerization. Test compounds and VEGF-165 were added after 30 minutes by pipetting 100 μL of a ten-fold concentrated solution onto the polymerized gel. Plates were incubated at 37°C for 24 hours, and cells were fixed by adding 4% paraformaldehyde (Roth, Karlsruhe, Germany). Sprouting intensity of HUVEC spheroids treated with the test samples was quantitated using an image analysis system to determine the cumulative sprout length (CSL) per spheroid. Images of single spheroids were captured using an inverted microscope and the digital imaging software NIS-Elements BR 3.0 (Nikon). Spheroid pictures were uploaded to Wimasis (www.wimasis.com) for image analysis. The CSL of each spheroid was determined using the imaging analysis tool WimSprout. The mean CSL of ten randomly selected spheroids was analyzed as an individual data point.

VEGFR2 [4] = molecular target: T2, VEGFR2; experiment: Previously reported IC50 (literature); type: biochemical; conditions: nM value converted, S2 Fig legend
[5] = 634 ug, cited from earlier work
VEGFR2 [6] = molecular target: T2, VEGFR2; conditions: cited from earlier work
synthetic melanin = experiment: in vitro
VEGFR1 = VEGFR1 (Homo sapiens, UniProt P17948); experiment: Ten-dose IC50 measurement
Chain of VEGFR1 (P17948 27-1338): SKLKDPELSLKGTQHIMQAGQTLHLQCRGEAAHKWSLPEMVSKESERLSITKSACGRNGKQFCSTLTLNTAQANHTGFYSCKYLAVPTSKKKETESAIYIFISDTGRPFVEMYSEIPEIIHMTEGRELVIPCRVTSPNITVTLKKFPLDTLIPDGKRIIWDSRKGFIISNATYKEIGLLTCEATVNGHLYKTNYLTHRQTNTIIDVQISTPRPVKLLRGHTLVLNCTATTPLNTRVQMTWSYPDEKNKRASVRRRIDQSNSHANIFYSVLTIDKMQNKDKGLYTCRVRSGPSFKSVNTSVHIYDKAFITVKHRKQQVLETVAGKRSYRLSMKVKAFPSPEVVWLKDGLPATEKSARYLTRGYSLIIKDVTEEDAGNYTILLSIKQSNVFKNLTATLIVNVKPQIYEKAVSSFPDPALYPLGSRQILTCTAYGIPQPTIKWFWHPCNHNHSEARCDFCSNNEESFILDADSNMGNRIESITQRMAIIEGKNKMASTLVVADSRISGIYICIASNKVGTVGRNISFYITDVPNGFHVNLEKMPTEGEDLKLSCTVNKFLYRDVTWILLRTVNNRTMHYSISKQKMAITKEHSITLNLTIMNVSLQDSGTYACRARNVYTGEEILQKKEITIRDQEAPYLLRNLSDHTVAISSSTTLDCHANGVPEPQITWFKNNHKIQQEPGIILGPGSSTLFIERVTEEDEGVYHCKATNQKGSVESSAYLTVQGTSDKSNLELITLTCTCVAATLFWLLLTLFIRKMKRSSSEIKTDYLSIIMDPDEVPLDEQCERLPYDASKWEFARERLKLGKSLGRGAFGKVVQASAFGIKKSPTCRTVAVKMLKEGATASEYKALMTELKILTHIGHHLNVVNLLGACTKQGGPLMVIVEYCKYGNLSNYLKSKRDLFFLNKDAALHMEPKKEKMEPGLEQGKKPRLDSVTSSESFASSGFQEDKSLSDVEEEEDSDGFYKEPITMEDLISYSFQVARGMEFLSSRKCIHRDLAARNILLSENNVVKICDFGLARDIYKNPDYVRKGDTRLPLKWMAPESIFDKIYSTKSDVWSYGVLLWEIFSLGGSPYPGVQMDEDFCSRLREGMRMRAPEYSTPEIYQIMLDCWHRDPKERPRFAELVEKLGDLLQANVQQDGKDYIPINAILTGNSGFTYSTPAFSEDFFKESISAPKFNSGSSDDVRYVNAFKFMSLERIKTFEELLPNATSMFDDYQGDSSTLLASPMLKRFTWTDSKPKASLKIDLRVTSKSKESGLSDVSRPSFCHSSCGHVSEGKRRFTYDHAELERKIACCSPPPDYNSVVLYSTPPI

TIE2 = TIE2 (Homo sapiens, UniProt Q02763); experiment: Ten-dose IC50 measurement
Chain of TIE2 (Q02763 23-1124): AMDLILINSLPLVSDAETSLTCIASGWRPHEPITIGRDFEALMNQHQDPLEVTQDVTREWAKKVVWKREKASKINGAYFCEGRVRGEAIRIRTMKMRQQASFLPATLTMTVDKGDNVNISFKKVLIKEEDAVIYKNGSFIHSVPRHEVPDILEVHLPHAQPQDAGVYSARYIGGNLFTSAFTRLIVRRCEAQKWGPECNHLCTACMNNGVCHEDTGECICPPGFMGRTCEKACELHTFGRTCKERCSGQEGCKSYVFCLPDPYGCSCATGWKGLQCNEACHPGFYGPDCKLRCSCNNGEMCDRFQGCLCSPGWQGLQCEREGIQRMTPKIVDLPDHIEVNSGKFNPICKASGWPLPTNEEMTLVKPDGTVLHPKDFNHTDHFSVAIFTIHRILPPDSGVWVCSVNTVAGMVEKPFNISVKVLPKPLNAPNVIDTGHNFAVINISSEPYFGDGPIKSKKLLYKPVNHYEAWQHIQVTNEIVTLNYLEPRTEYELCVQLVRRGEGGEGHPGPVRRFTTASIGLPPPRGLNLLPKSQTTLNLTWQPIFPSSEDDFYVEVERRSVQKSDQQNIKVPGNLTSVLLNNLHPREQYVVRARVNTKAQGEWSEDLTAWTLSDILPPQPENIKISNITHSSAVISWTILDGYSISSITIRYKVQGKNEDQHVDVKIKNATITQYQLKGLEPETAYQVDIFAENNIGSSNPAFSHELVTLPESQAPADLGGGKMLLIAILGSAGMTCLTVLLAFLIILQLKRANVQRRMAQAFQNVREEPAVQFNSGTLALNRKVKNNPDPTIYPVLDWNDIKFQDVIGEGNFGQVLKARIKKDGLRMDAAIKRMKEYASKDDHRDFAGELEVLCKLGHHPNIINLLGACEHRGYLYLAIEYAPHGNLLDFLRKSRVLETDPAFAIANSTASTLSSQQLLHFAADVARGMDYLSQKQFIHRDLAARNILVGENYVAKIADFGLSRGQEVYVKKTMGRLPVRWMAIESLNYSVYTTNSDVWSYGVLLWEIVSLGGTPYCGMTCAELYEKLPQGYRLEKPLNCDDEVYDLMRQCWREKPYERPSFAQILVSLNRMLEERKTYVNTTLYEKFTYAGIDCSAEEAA

[7] = test system: VEGF-induced angiogenesis on the CAM; experiment: Gelatin sponge chick chorioallantoic membrane (CAM) assay

Cc1[nH]c(/C=C2\C(=O)Nc3ccc(F)cc32)c(C)c1C(=O)N[C@H]1CCN(C(=O)N(C)C)C1 [Vorolanib]
Avg % Inhibition FGFR3 (FGFR3; 1uM TKI): 63.96%
Avg % Inhibition FGFR3 (FGFR3; 10uM TKI): 86.13%
Avg % Inhibition VEGFR2 (VEGFR2 [1]; 1uM TKI): 74.78%
Avg % Inhibition VEGFR2 (VEGFR2 [1]; 10uM TKI): 86.6%
Avg % Inhibition PDGFRb (PDGFRβ; 1uM TKI): 83.57%
Avg % Inhibition PDGFRb (PDGFRβ; 10uM TKI): 94.8%
IC50 (VEGFR2 [2]; S1 Dataset, read-out: IC50 VEGFR2): 7.61e-08 M
%Activity VEGFR2 (VEGFR2 [2]; 1.00E-05 M TKI): 7.53%
%Activity VEGFR2 (VEGFR2 [2]; 1.11E-06 M TKI): 15.96%
%Activity VEGFR2 (VEGFR2 [2]; 1.23E-07 M TKI): 39.66%
%Activity VEGFR2 (VEGFR2 [2]; 1.37E-08 M TKI): 76.92%
%Activity VEGFR2 (VEGFR2 [2]; 1.52E-09 M TKI): 90.70%
%Activity VEGFR2 (VEGFR2 [2]; 3.33E-06 M TKI): 8.61%
%Activity VEGFR2 (VEGFR2 [2]; 3.70E-07 M TKI): 24.16%
%Activity VEGFR2 (VEGFR2 [2]; 4.12E-08 M TKI): 62.72%
%Activity VEGFR2 (VEGFR2 [2]; 4.57E-09 M TKI): 90.18%
%Activity VEGFR2 (VEGFR2 [2]; 5.08E-10 M TKI): 99.81%
IC50 (VEGFR2 [2]; Fig 3A inset, unit inferred, plot axes in (M), read-out: Compound IC50 data for VEGFR-2: IC50): 7.61e-08 M
IC50 (VEGFR3; S1 Dataset, read-out: IC50 VEGFR3): 3.39e-08 M
%Activity VEGFR3 (VEGFR3; 1.00E-05 M TKI): 2.39%
%Activity VEGFR3 (VEGFR3; 1.11E-06 M TKI): 8.63%
%Activity VEGFR3 (VEGFR3; 1.23E-07 M TKI): 30.49%
%Activity VEGFR3 (VEGFR3; 1.37E-08 M TKI): 60.22%
%Activity VEGFR3 (VEGFR3; 1.52E-09 M TKI): 79.65%
%Activity VEGFR3 (VEGFR3; 3.33E-06 M TKI): 4.43%
%Activity VEGFR3 (VEGFR3; 3.70E-07 M TKI): 18.98%
%Activity VEGFR3 (VEGFR3; 4.12E-08 M TKI): 44.44%
%Activity VEGFR3 (VEGFR3; 4.57E-09 M TKI): 68.37%
%Activity VEGFR3 (VEGFR3; 5.08E-10 M TKI): 81.12%
IC50 (VEGFR3; Fig 3A inset, unit inferred, plot axes in (M), read-out: Compound IC50 data for VEGFR-3: IC50): 3.39e-08 M
cumulative sprout length per spheroid (CSL), mean ([3]; 1.00E-05 M TKI): 144
cumulative sprout length per spheroid (CSL), mean ([3]; 1.00E-06 M TKI): 242
cumulative sprout length per spheroid (CSL), mean ([3]; 1.00E-07 M TKI): 455
cumulative sprout length per spheroid (CSL), mean ([3]; 3.00E-06 M TKI): 269
cumulative sprout length per spheroid (CSL), mean ([3]; 3.00E-07 M TKI): 241
cumulative sprout length per spheroid (CSL), mean ([3]; 3.00E-08 M TKI): 992
vessel sprouting (representative spheroid images) ([3]; highest test concentration of 1×10^–5M): zero vessel sprouting
IC50 (VEGFR2 [4]): 52.3 nM
Concentration, choroid ([5]; 2 days post-treatment): 124 µg/g
Concentration, choroid ([5]; 14 days post-treatment): 52 µg/g
Concentration, choroid ([5]; 29 days post-treatment): 74 µg/g
Concentration, choroid ([5]; 62 days post-treatment): 206 µg/g
Concentration, choroid ([5]; 120 days post-treatment): 109 µg/g
Concentration, choroid ([5]; 182 days post-treatment): 200 µg/g
Concentration, choroid ([5]; 240 days post-treatment): 293 µg/g
Concentration, retina ([5]; 2 days post-treatment): 208.6 µg/g
Concentration, retina ([5]; 14 days post-treatment): 223.3 µg/g
Concentration, retina ([5]; 29 days post-treatment): 143.1 µg/g
Concentration, retina ([5]; 62 days post-treatment): 136.3 µg/g
Concentration, retina ([5]; 120 days post-treatment): 434.5 µg/g
Concentration, retina ([5]; 182 days post-treatment): 243.2 µg/g
Concentration, retina ([5]; 240 days post-treatment): 122.5 µg/g
IC50 (VEGFR2 [6]; determined by Millipore Corporation prior to the study, read-out: VEGFR2 IC50 (used to set CAM doses)): 52 nM
IC50 (VEGFR2 [6]; previously reported, read-out: VEGFR2 IC50): 1.12 nM
fraction unbound at 1 h (synthetic melanin): 0.857
%Activity VEGFR1 (VEGFR1; 1.00E-05 M TKI, 10μM ATP): 15.82%
%Activity VEGFR1 (VEGFR1; 1.11E-06 M TKI, 10μM ATP): 42.07%
%Activity VEGFR1 (VEGFR1; 1.37E-08 M TKI, 10μM ATP): 89.38%
%Activity VEGFR1 (VEGFR1; 1.52E-09 M TKI, 10μM ATP): 85.26%
%Activity VEGFR1 (VEGFR1; 3.33E-06 M TKI, 10μM ATP): 22.84%
%Activity VEGFR1 (VEGFR1; 3.70E-07 M TKI, 10μM ATP): 64.45%
%Activity VEGFR1 (VEGFR1; 4.12E-08 M TKI, 10μM ATP): 79.63%
%Activity VEGFR1 (VEGFR1; 4.57E-09 M TKI, 10μM ATP): 88.85%
IC50 (VEGFR1; Compound IC50 data for VEGFR-1: IC50, Fig 3A inset, unit inferred, plot axes in (M), 10μM ATP): 9.44e-07 M
IC50 (VEGFR1; IC50 VEGFR1, 10μM ATP, S1 Dataset): 9.44e-07 M
%Activity TIE2 (TIE2; 1.00E-05 M TKI, 10μM ATP): 69.30%
%Activity TIE2 (TIE2; 1.11E-06 M TKI, 10μM ATP): 100.16%
%Activity TIE2 (TIE2; 1.37E-08 M TKI, 10μM ATP): 100.50%
%Activity TIE2 (TIE2; 1.52E-09 M TKI, 10μM ATP): 103.72%
%Activity TIE2 (TIE2; 3.33E-06 M TKI, 10μM ATP): 83.50%
%Activity TIE2 (TIE2; 3.70E-07 M TKI, 10μM ATP): 100.13%
%Activity TIE2 (TIE2; 4.12E-08 M TKI, 10μM ATP): 99.77%
%Activity TIE2 (TIE2; 4.57E-09 M TKI, 10μM ATP): 100.65%
%Activity TIE2 (TIE2; 5.08E-10 M TKI, 10μM ATP): 98.18%
IC50 (TIE2; IC50 TIE2, 10μM ATP, S1 Dataset): 20700 nM
IC50 (TIE2; TIE2 IC50, determined by Reaction Biology (US), 10μM ATP): 20700 nM
Angiogenesis - Vessel number, Mean ([7]; TKI at 200 x VEGFR2 IC50): 8.7
Angiogenesis - Vessel number, individual egg ([7]; TKI at 200 x VEGFR2 IC50, one value per egg): 1.33 and 10.33 and 14 and 8.33 and 9.33 and 9
reduction of the number of blood vessels perfusing the sponges vs negative control ([7]; TKI at 200× VEGFR2 IC50 dose): 37.1%
reduction of the number of blood vessels perfusing the sponges vs negative control ([7]; TKI at VEGFR2 IC50 dose): 39.9%
Angiogenesis - Vessel thickness score, Mean ([7]; TKI at VEGFR2 IC50 dose, score 0-3): 1.2
Angiogenesis - Vessel thickness score, individual egg ([7]; TKI at VEGFR2 IC50 dose, score 0-3, one value per egg): 0 and 1.67 and 1.33 and 1 and 0.67 and 2.33
